Laboratory results taken from patent publication US20210283064A1, “STABLE, BIOADHESIVE, AND DIFFUSION-RESTRICTIVE COACERVATE” (The Chinese University of Hong Kong, priority 2020, published 2021).

System: DSS-induced colitis
Assay: Rat model of DSS-induced colitis
Type: in vivo, SD rats
Settings: H&E-stained colon sections, oral gavage days 1, 3, 5, sacrifice day 7
Excerpt: SD rats weighing around 250 g were given 4.5% DSS in drinking water for 7 days to develop acute colitis. Clinical manifestations of the colitis, such as severe rectal bleeding, watery diarrhea, and colonic edema were observed after 7 days. […] Untreated colitic SD rats were used as the negative control. All SD rats were allowed unrestricted access to water and standard laboratory diet before and after oral gavage and sacrificed on day 7 for further evaluation of colon weight and length, histological severity, IBD-associated colonic myeloperoxidase (MPO)-activity, mRNA levels of tight junction-associated proteins (ZO-1 and occludin-1) and pro-inflammatory cytokines, such as interleukin IL-1β and tumor necrosis factor (TNF) in the distal colon.

Substance “dexamethasone sodium phosphate [Dex-P/PBS]” has a mean histopathology score of 1.917.
